The values that follow come from patent US20140371165A1, “Identification of NSC23925 Isomers to Reverse Multidrug Resistance in Human Cancers” (priority 2012, published 2014).

Structures can show the parent of a compound that is named as a salt.

One series concerns SW480TR. The series can be described thus: M30-Apoptosense ELISA apoptosis assay in SW480TR. The class given is cell-based, human. To be noted: NSC23925b 1 μM with doxorubicin 0.5 μM, 72 hours. The protocol:
Apoptosis was evaluated using the M30-Apoptosense ELISA assay kit (Peviva AB, Bromma, Sweden) according to the manufacturer's instructions. For the doxorubicin and NSC23925b treatment, MCF-7adr or SW480TR cells were seeded at 8,000 cells/per well in a 96-well plate for 24 hours before treatment. The cells were then treated with 0.5 μM of doxorubicin, 1 μM of NSC23925b, or a combination of the two drugs for an additional 72 hours. The cells were then lysed by an additional […] of 10% NP40 per well, following the manufacturer's instructions for apoptosis assay.
The effect of NSC23925b on the doxorubicin induction of apoptosis was assessed in MCF-7adr or SW480TR. cell lines. Cells were treated with either doxorubicin (0.5 μM) alone, NSC23925b (1 μM) alone, or a combination of doxorubicin and NSC23925b for 72 hours. Apoptosis was scored using the M30-Apoptosense ELISA assay.

The next series deals with T1, Pgp (Homo sapiens, UniProt P08183).
T1 construct: multidrug resistant cells expressing high levels of Pgp rapidly extrude non-fluorescent calcein AM from the plasma membrane; endogenous in cells; host or cells: MCF-7adr and SW480TR drug-resistant cells
The experiment in a line: Calcein AM drug efflux fluorescence microscopy assay (Vybrant multi-drug resistance kit). Type of series: cell-based. The text has this:
The Vybrant™ multi-drug resistance assay kit (Invitrogen/Molecular Probes) was used to measure drug efflux properties of different resistant cell lines. This assay utilizes the fluorogenic dye calcein acetoxymethyl ester (calcein AM) as a substrate for efflux activity of Pgp or other membrane pump ABC proteins. Calcein AM is taken up by cells and hydrolyzed by cytoplasmic esterases to fluorescent calcein. Calcein […] is well retained in the cytosol. However, multidrug resistant cells expressing high levels of Pgp rapidly extrude non-fluorescent calcein AM from the plasma membrane, reducing accumulation of fluorescent calcein in the cytosol. Studies were carried out as described. In brief, drug resistant cells (5,000 cells per well) were cultured in 96-well plate for 24 hours. Triplicated cultures of cells were treated with different concentrations of NSC23925b for one hour and then incubated in calcein AM in 100 μl total volume. After 30 minutes, images were acquired by Nikon Eclipse Ti-U fluorescence microscope (Nikon Corp.) equipped with a SPOT RT digital camera (Diagnostic Instruments, Inc., Sterling Heights, Mich.).
The effect of NSC23925b on the uptake and efflux of calcein AM in MCF-7adr and SW480TR was determined. […] The calcein-AM assay was optimized and performed using the Vybrant Multidrug Resistance kit. Cells were seeded at 50,000 cells/well (100 μl of culture medium) in 96-well plate and incubated for 24 hours. MCF-7adr cells in triplicate were treated with NSC23925b for one hour and then incubated in calcein AM for 30 minutes. The cell fluorescence images were acquired by a fluorescence microscope. NSC23925b has a prominent effect on the accumulation of calcein AM in these cells starting at a concentration as low as 1 nM.

Series [1] relates to SKOV-3TR xenograft tumors. The experiment in a line: SKOV-3TR xenograft tumor growth in nude mice. The protocol:
The Crl:SHO-Prkdc^SCIDHr^hr nude female mice at approximately 3-4 weeks of age were purchased from The Charles River Laboratories (Ann Arbor, Mich.). Animal studies were carried out with protocols approved by the Massachusetts General Hospital Subcommittee on Research Animal Care (SRAC). To determine the effect of NSC23925b on paclitaxel sensitivity in xenograft model, 5×10^6 SKOV-3TR cells were injected subcutaneously with matrigel (BD Biosciences, San Jose, Calif.) on day one. Two weeks after injection, the mice were divided into four groups to start the treatments. Group one was received intraperitoneal (i.p) injection with normal saline, group two with paclitaxel (20 mg/kg), group three with NSC23925b (40 mg/kg). […] All four groups were treated twice a week for two weeks. The health of the mice and evidence of tumor growth were examined daily. Tumors were measured twice a week with a digital caliper. Tumor volume (mm^3) was calculated as (W^2×L)/2, where W is width and L is length. The curve of tumor growth was drawn according to tumor volume by using of GraphPad PRISM 4 software.
To further evaluate the effects of NSC23925b and paclitaxel combination therapy on the tumor growth of resistant cells, the growth of xenograft tumors were examined. A well-characterized ovarian cancer MDR cell line SKOV-3TR was chosen for in vivo studies. […] Tumors were measured twice a week with a digital caliper. Tumor volume (mm^3) was calculated as (W^2×L)/2, where W is width and L is length (FIG. 5A). Representative images of dissected tumor tissues from treated nude mice.

T1 sequence (P08183 whole entry): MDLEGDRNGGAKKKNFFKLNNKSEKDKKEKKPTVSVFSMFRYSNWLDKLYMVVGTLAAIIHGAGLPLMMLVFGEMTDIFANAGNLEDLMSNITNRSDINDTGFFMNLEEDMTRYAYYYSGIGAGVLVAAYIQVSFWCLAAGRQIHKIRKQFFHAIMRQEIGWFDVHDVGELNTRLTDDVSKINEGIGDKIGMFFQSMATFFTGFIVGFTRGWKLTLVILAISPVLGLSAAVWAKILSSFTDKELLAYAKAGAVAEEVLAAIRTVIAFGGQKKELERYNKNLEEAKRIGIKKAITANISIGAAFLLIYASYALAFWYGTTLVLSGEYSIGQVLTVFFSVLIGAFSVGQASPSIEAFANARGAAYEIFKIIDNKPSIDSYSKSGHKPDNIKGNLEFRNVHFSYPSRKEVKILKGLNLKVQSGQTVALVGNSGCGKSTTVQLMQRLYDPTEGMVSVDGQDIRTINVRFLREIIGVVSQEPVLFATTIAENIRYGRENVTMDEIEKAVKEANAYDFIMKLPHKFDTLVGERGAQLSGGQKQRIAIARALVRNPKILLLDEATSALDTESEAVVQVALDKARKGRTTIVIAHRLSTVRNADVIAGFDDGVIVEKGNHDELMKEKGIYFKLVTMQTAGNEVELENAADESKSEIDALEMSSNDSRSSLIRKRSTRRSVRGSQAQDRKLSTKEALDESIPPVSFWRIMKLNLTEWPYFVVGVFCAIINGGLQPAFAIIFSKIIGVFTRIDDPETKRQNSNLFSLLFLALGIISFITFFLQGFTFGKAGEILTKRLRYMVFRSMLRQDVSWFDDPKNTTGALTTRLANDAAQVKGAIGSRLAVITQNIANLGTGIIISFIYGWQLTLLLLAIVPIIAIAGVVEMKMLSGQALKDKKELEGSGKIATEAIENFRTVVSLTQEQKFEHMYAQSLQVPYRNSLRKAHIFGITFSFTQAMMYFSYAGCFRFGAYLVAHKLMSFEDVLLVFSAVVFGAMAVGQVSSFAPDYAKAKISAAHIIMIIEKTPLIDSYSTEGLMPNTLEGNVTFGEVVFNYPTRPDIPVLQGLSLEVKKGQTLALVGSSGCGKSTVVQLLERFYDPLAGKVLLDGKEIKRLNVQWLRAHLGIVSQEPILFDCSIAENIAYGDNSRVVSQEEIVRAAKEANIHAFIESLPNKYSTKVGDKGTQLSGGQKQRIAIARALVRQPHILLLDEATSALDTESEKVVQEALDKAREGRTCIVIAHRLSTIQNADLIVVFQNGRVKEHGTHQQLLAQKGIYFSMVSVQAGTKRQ

For `COc1ccc(-c2cc([C@H](O)[C@H]3CCCCN3)c3ccccc3n2)cc1` [NSC23925b, (2-(4-methoxyphenyl)quinolin-4-yl)(piperidin-2-yl)methanol hydrochloride], the “cell death / apoptosis, combination versus either drug alone” value in the series on SW480TR is on record as “significantly greater cell death”. Further, the “lowest concentration with prominent effect on accumulation of calcein AM” value on Pgp (MCF-7adr and SW480TR cells) is 1 nM. Further, the “intracellular accumulation of calcein AM” value on Pgp (MCF-7adr and SW480TR, 1 h pretreatment, calcein AM 30 minutes) is reported as “increase intracellular accumulation of calcein AM in these cell lines in a dose-dependent manner”. The “near maximal reversal of accumulation deficit” value at Pgp (calcein AM, MCF-7adr and SW480TR cells) is reported as 500 nM. For the same compound, the EC50 at Pgp (calcein AM, MCF-7adr and SW480TR cells, read-out: Half-maximal reversal of accumulation deficit) is 0.1 µM. Further, the “reversal of resistance to paclitaxel in xenograft model” value in series [1] (NSC23925b 50 mg/kg with paclitaxel) is recorded as “almost completely reverse resistance to paclitaxel”. Moreover, the “toxicity on the basis of animal weight and mortality” value in series [1] (NSC23925b administered alone) is “no significant toxicity”. For the same compound, in series [1] (NSC23925b combined with paclitaxel), the “effect on paclitaxel-induced toxicity” value was “reducing paclitaxel-induced toxicity in some animals”. The “inhibitory effect on tumor growth, combination versus single agents” value in series [1] (NSC23925b with paclitaxel (20 mg/kg) i.p. twice a week for two weeks) is reported as “significantly greater inhibitory effect”. Moreover, the “effect on paclitaxel resistant tumor cell growth, single agent” value in series [1] (alone, i.p. twice a week for two weeks, paclitaxel 20 mg/kg or NSC23925b 40 mg/kg) was “no significant effects”.
